Source: article PMC5641551, “Chemical Proteomics for Target Discovery of Head-to-Tail Cyclized Mini-Proteins” (Frontiers in Chemistry, 2017)
No end group written: not given here.

Test system: Foxo3a transcriptional activity in HEK293 cells co-transfected with 14-3-3β
Assay: Foxo3a luciferase reporter gene assay
Type: cell-based, human
Protocol: Jurkat cells were cultured in RPMI medium containing phenol red supplemented with 10% (v/v) heat deactivated fetal calf serum and 100 U/mL penicillin/streptomycin at 37°C in humidified atmosphere of 5% CO2. HEK293 cells were cultured in Dulbecco's modified eagle high glucose medium supplied with 10% fetal calf serum and 100 U per mL penicillin/streptomycin. Cell transfection was carried out by Jetprime® according to the manufacturer's recommendation (Polyplus, Illkirch, France).
Forkhead box protein 3a induced transcriptional activity was measured on transiently transfected HEK293 cells (5 × 10^4). The reporter plasmid encoding luciferase under the control of a promotor containing forkhead responsive elements and the human p-Foxo3a-HA plasmid were gifts of Michael Greenberg provided by the Addgene consortium (#1787 and #1789; Brunet et al., [1999]). The plasmids encoding the mouse p-14-3-3 beta-GST protein and the functional forkhead transcription factor were used in a 1.5-fold amount compared to the reporter construct. The transfection was completed after 6 h and the cells could recover for 4 h in growth medium. The cells were serum starved using 1% (v/v) fetal bovine serum in phenol red free DMEM medium supplemented with antibiotics overnight. After 4 h peptide and 24 h of fusicoccin-A treatment the luciferase assay was developed using luciferase development kit from Promega E151 (Wisconsin, United States) and the luminescence was measured on a synergy H4 plate reader (Biotek). Control compounds were the PI3K inhibitors wortmannin and LY294002 (both Sigma Aldrich). The recorded data were normalized to the non-treated control sample. Significance and IC50-values were calculated from at least two biological replicates using GraphPad Prism. Data analysis was performed by non-linear regression using a four parameter Hill equation.
If not stated in detail for the respective single experiment the statistical tests were performed using GraphPad Prism 5.04 (GraphPad, La Jolla, CA) using one-way ANOVA with Bonferonni or Dunnett's Post-hoc test. The number of technical and biological repeats was justified by analysis of error and reproducibility of results. Significance threshold P < 0.05 was applied to all experiments. For the data shown in Figure 3 three individuals for the in vivo experiments were used and each data point was performed in three technical replicates. The pull down experiments shown in Figures 4A,B were performed a single time and the data represent two technical repeats. Gel lanes were loaded with single (1x) or doubled (2x) amount of pull down proteins for better visibility. The data illustrated in Figures 4C,D were performed in two independent experiments. Silver stained gel lanes were evaluated by loading various amounts, and then the amount with optimized staining contrast was loaded and used for in-gel protein digestion. The pull down experiments shown in Figures 4E,F were performed a single time. The Western Blots and the pull down experiment shown in Figure 5 represent experiments in three and two independent experiments, respectively. Experiments in a well-based format (Figure 6) were performed with three technical and two biological replicates. All data illustrated in this manuscript show the mean ± standard deviation (SD) unless stated otherwise. The MS based protein identifications were performed in two technical analyses for each sample.
Figure 6 Foxo3a luciferase reporter assay. The modulation of the Akt/PI3K/Foxo3a pathway by the cyclotide [T20K]kB1 binding to 14-3-3 proteins was investigated. HEK293 cells were transiently transfected with Foxo3a-Luc plasmid encoding luciferase under a promotor with Foxo response elements, Foxo3a and 14-3-3β. For control the reporter plasmid (basal value) was also co-transfected with the single functional effector proteins 14-3-3β or Foxo3a. Cells were treated under starving conditions with peptide or fusicoccin-A (FC-A) for 4 h or 24 h, respectively. […]

## CGETCVGGTCNTPGCKCSWPVCTRNGLPV (also: bicyclic or more (positions not given here)) [[T20K]kB1, synthetic cyclotide drug candidate, Thr20 to Lys mutant of kalata B1]
HEK293, luciferase reporter, PI3K inhibitors as controls, peptide 4 h
  Foxo3a transcriptional activity, effect in words: reduced the transcriptional activity of Foxo3a in a concentration-dependent manner
HEK293 transfected with Foxo3a-Luc, Foxo3a and 14-3-3β, peptide treatment 4 h, IC50 ± SD, two independent experiments, four parameter Hill fit, read-out: IC50, reduction of Foxo3a transcriptional activity (luciferase)
  IC50: 5.27 ± 0.25 µM
Inferred from decreased Foxo3a transcriptional activity in reporter assay
  effect on 14-3-3/Foxo3a protein complex (suggested): exerts a stabilizing effect on the 14-3-3/Foxo3a protein complex
